Assay results reported in ChEMBL document CHEMBL1131216, “Anhydrolide macrolides. 2. Synthesis and antibacterial activity of 2,3-anhydro-6-O-methyl 11,12-carbazate erythromycin A analogues” (1998).
In brackets after ≈: the same amount, converted by molar mass.

What was measured:
Format in all cases: functional
[1] = tested on: Streptococcus pyogenes; test: In vitro antibacterial activity of EES61 strain of Gram positive bacteria Streptococcus pyogenes
[2] = tested on: Staphylococcus aureus; test: In vitro antibacterial activity of A-5278 strain of Gram positive bacteria Staphylococcus aureus
[3] = tested on: Streptococcus pyogenes; test: In vitro antibacterial activity of 930 strain of Gram positive bacteria Streptococcus pyogenes
[4] = tested on: Staphylococcus aureus; test: In vitro antibacterial activity of 6538P strain of Gram positive bacteria Staphylococcus aureus
[5] = tested on: Haemophilus influenzae; test: In vitro antibacterial activity of DILL strain of Gram negative bacteria Haemophilus influenzae
[6] = tested on: Streptococcus pneumoniae; test: In vitro antibacterial activity of ATCC 6303 strain of Gram positive bacteria Streptococcus pneumoniae
[7] = tested on: Staphylococcus aureus; test: In vitro antibacterial activity of A5177 strain of Gram positive bacteria Staphylococcus aureus
[8] = tested on: Streptococcus pneumoniae; test: In vitro antibacterial activity of 5649 strain of Gram positive bacteria Streptococcus pneumoniae
[9] = tested on: Streptococcus pneumoniae; test: In vitro antibacterial activity of 5979 strain of Gram positive bacteria Streptococcus pneumoniae
[10] = tested on: Streptococcus pyogenes; test: In vitro antibacterial activity of PIU2584 strain of Gram positive bacteria Streptococcus pyogenes

Row | Structure (SMILES) | MIC [1] [µg/mL] | MIC [2] [µg/mL] | MIC [3] [µg/mL] | MIC [4] [µg/mL] | MIC [5] [µg/mL] | MIC [6] [µg/mL] | MIC [7] [µg/mL] | MIC [8] [µg/mL] | MIC [9] [µg/mL] | MIC [10] [µg/mL]
1 | CC[C@H]1OC(=O)/C(C)=C/[C@H](C)[C@@H](O[C@@H]2O[C@H](C)C[C@H](N(C)C)[C@H]2O)[C@@](C)(OC)C[C@@H](C)C(=O)[C@H](C)[C@H]2N(N)C(=O)O[C@]12C | 0.25 (≈ 0.409 µM) | > 100 | > 64 | 1.56 (≈ 2.55 µM) | 32 (≈ 52.3 µM) | 0.25 (≈ 0.409 µM) | 1.56 (≈ 2.55 µM) | 1 (≈ 1.63 µM) | > 64 | 1 (≈ 1.63 µM)
2 | CC[C@H]1OC(=O)/C(C)=C/[C@H](C)[C@@H](O[C@@H]2O[C@H](C)C[C@H](N(C)C)[C@H]2O)[C@@](C)(OC)C[C@@H](C)C(=O)[C@H](C)[C@H]2N(NCc3c(O)ccc4ccccc34)C(=O)O[C@]12C | 0.06 (≈ 0.0781 µM) | 100 (≈ 130 µM) | 32 (≈ 41.7 µM) | 0.2 (≈ 0.26 µM) | 8 (≈ 10.4 µM) | 0.03 (≈ 0.0391 µM) | – | 0.25 (≈ 0.326 µM) | 32 (≈ 41.7 µM) | 0.5 (≈ 0.651 µM)
3 | CC[C@H]1OC(=O)/C(C)=C/[C@H](C)[C@@H](O[C@@H]2O[C@H](C)C[C@H](N(C)C)[C@H]2O)[C@@](C)(OC)C[C@@H](C)C(=O)[C@H](C)[C@H]2N(NCCCc3cccc(Cl)c3)C(=O)O[C@]12C | 0.25 (≈ 0.327 µM) | 50 (≈ 65.4 µM) | 16 (≈ 20.9 µM) | 0.39 (≈ 0.51 µM) | 32 (≈ 41.9 µM) | 0.25 (≈ 0.327 µM) | 0.39 (≈ 0.51 µM) | 2 (≈ 2.62 µM) | 32 (≈ 41.9 µM) | 1 (≈ 1.31 µM)
4 | CC[C@H]1OC(=O)/C(C)=C/[C@H](C)[C@@H](O[C@@H]2O[C@H](C)C[C@H](N(C)C)[C@H]2O)[C@@](C)(OC)C[C@@H](C)C(=O)[C@H](C)[C@H]2N(NCc3ccc(N)cc3)C(=O)O[C@]12C | 0.06 (≈ 0.0837 µM) | > 100 | > 128 | 0.78 (≈ 1.09 µM) | 16 (≈ 22.3 µM) | 0.25 (≈ 0.349 µM) | 0.78 (≈ 1.09 µM) | 1 (≈ 1.39 µM) | > 128 | 1 (≈ 1.39 µM)
5 | CC[C@H]1OC(=O)/C(C)=C/[C@H](C)[C@@H](O[C@@H]2O[C@H](C)C[C@H](N(C)C)[C@H]2O)[C@@](C)(OC)C[C@@H](C)C(=O)[C@H](C)[C@H]2N(NCCCc3ccccc3N)C(=O)O[C@]12C | 0.06 (≈ 0.0805 µM) | > 100 | 128 (≈ 172 µM) | 0.39 (≈ 0.524 µM) | 16 (≈ 21.5 µM) | 0.03 (≈ 0.0403 µM) | 0.39 (≈ 0.524 µM) | – | > 128 | 1 (≈ 1.34 µM)
6 | CC[C@H]1OC(=O)/C(C)=C/[C@H](C)[C@@H](O[C@@H]2O[C@H](C)C[C@H](N(C)C)[C@H]2O)[C@@](C)(OC)C[C@@H](C)C(=O)[C@H](C)[C@H]2N(NCc3ccc(O)c(O)c3)C(=O)O[C@]12C | 1 (≈ 1.36 µM) | > 100 | > 128 | 0.78 (≈ 1.06 µM) | 32 (≈ 43.6 µM) | 1 (≈ 1.36 µM) | 0.78 (≈ 1.06 µM) | 2 (≈ 2.73 µM) | > 128 | 16 (≈ 21.8 µM)
7 | CC[C@H]1OC(=O)/C(C)=C/[C@H](C)[C@@H](O[C@@H]2O[C@H](C)C[C@H](N(C)C)[C@H]2O)[C@@](C)(OC)C[C@@H](C)C(=O)[C@H](C)[C@H]2N(NCCCc3ccc(N)cc3)C(=O)O[C@]12C | 0.03 (≈ 0.0403 µM) | > 100 | > 128 | 0.39 (≈ 0.524 µM) | 4 (≈ 5.37 µM) | 0.03 (≈ 0.0403 µM) | – | 1 (≈ 1.34 µM) | > 128 | 1 (≈ 1.34 µM)
8 | CC[C@H]1OC(=O)/C(C)=C/[C@H](C)[C@@H](O[C@@H]2O[C@H](C)C[C@H](N(C)C)[C@H]2O)[C@@](C)(OC)C[C@@H](C)C(=O)[C@H](C)[C@H]2N(NCCCc3cccc(N)c3)C(=O)O[C@]12C | 0.03 (≈ 0.0403 µM) | > 100 | > 128 | 0.2 (≈ 0.268 µM) | 4 (≈ 5.37 µM) | 0.03 (≈ 0.0403 µM) | 0.2 (≈ 0.268 µM) | – | > 128 | 1 (≈ 1.34 µM)
9 | CC[C@H]1OC(=O)/C(C)=C/[C@H](C)[C@@H](O[C@@H]2O[C@H](C)C[C@H](N(C)C)[C@H]2O)[C@@](C)(OC)C[C@@H](C)C(=O)[C@H](C)[C@H]2N(NCc3ccc(SC)cc3)C(=O)O[C@]12C | 0.03 (≈ 0.0401 µM) | > 100 | 64 (≈ 85.6 µM) | 0.39 (≈ 0.521 µM) | 8 (≈ 10.7 µM) | 0.03 (≈ 0.0401 µM) | – | 0.5 (≈ 0.668 µM) | 64 (≈ 85.6 µM) | 1 (≈ 1.34 µM)
10 | CC[C@H]1OC(=O)/C(C)=C/[C@H](C)[C@@H](O[C@@H]2O[C@H](C)C[C@H](N(C)C)[C@H]2O)[C@@](C)(OC)C[C@@H](C)C(=O)[C@@H](C)[C@H]2N(NCCCc3ccccc3)C(=O)O[C@]12C | 2 (≈ 2.74 µM) | 25 (≈ 34.2 µM) | 8 (≈ 11 µM) | 12.5 (≈ 17.1 µM) | > 128 | 2 (≈ 2.74 µM) | – | 8 (≈ 11 µM) | 16 (≈ 21.9 µM) | 8 (≈ 11 µM)

The next lines start with the values.

Row | MIC [1] [µg/mL] | MIC [2] [µg/mL] | MIC [3] [µg/mL] | MIC [4] [µg/mL] | MIC [5] [µg/mL] | MIC [6] [µg/mL] | MIC [7] [µg/mL] | MIC [8] [µg/mL] | MIC [9] [µg/mL] | MIC [10] [µg/mL] | Structure (SMILES)
11 | 0.03 (≈ 0.0402 µM) | > 100 | 128 (≈ 171 µM) | 0.05 (≈ 0.0669 µM) | 8 (≈ 10.7 µM) | 0.03 (≈ 0.0402 µM) | 0.05 (≈ 0.0669 µM) | 1 (≈ 1.34 µM) | > 128 | 1 (≈ 1.34 µM) | CC[C@H]1OC(=O)/C(C)=C/[C@H](C)[C@@H](O[C@@H]2O[C@H](C)C[C@H](N(C)C)[C@H]2O)[C@@](C)(OC)C[C@@H](C)C(=O)[C@H](C)[C@H]2N(NCc3ccc([N+](=O)[O-])cc3)C(=O)O[C@]12C
12 | 0.03 (≈ 0.0387 µM) | > 100 | 64 (≈ 82.6 µM) | 0.1 (≈ 0.129 µM) | 8 (≈ 10.3 µM) | 0.03 (≈ 0.0387 µM) | 0.01 (≈ 0.0129 µM) | 1 (≈ 1.29 µM) | 128 (≈ 165 µM) | 0.5 (≈ 0.645 µM) | CC[C@H]1OC(=O)/C(C)=C/[C@H](C)[C@@H](O[C@@H]2O[C@H](C)C[C@H](N(C)C)[C@H]2O)[C@@](C)(OC)C[C@@H](C)C(=O)[C@H](C)[C@H]2N(NCCCc3ccccc3[N+](=O)[O-])C(=O)O[C@]12C
13 | 0.03 (≈ 0.0377 µM) | > 100 | 128 (≈ 161 µM) | 0.2 (≈ 0.251 µM) | 8 (≈ 10.1 µM) | 0.03 (≈ 0.0377 µM) | – | 0.5 (≈ 0.628 µM) | > 128 | 1 (≈ 1.26 µM) | CC[C@H]1OC(=O)/C(C)=C/[C@H](C)[C@@H](O[C@@H]2O[C@H](C)C[C@H](N(C)C)[C@H]2O)[C@@](C)(OC)C[C@@H](C)C(=O)[C@H](C)[C@H]2N(NCCCn3cnc(-c4ccccc4)c3)C(=O)O[C@]12C
14 | 0.03 (≈ 0.0418 µM) | > 100 | > 128 | 0.2 (≈ 0.279 µM) | 4 (≈ 5.57 µM) | 0.03 (≈ 0.0418 µM) | 0.1 (≈ 0.139 µM) | 1 (≈ 1.39 µM) | > 128 | 0.5 (≈ 0.696 µM) | CC[C@H]1OC(=O)/C(C)=C/[C@H](C)[C@@H](O[C@@H]2O[C@H](C)C[C@H](N(C)C)[C@H]2O)[C@@](C)(OC)C[C@@H](C)C(=O)[C@H](C)[C@H]2N(NCc3cccc(O)c3)C(=O)O[C@]12C
15 | 0.015 (≈ 0.0197 µM) | > 100 | > 128 | 0.1 (≈ 0.131 µM) | 4 (≈ 5.24 µM) | 0.03 (≈ 0.0393 µM) | – | 0.25 (≈ 0.328 µM) | > 128 | 0.25 (≈ 0.328 µM) | CC[C@H]1OC(=O)/C(C)=C/[C@H](C)[C@@H](O[C@@H]2O[C@H](C)C[C@H](N(C)C)[C@H]2O)[C@@](C)(OC)C[C@@H](C)C(=O)[C@H](C)[C@H]2N(NCc3cc([N+](=O)[O-])ccc3O)C(=O)O[C@]12C
